Source: paper PMC8454699, “Structure and function of aerotolerant, multiple-turnover THI4 thiazole synthases” (Biochemical Journal, 2021)

Molecular target: T1, Thermovibrio ammonificans THI4 (TaTHI4) (Thermovibrio ammonificans, UniProt E8T346)
T1 construct: N-terminal His6 tag (pBAD24, recoded gene), E. coli BL21(DE3); homooctamer, four monomers per asymmetric unit; anaerobically reconstituted with Fe(II), NAD+ and glycine
Assay: X-ray crystallography, […] A
Assay type: binding
Conditions: reaction intermediate formed from NAD+ and glycine; Fe(II)-reconstituted, anaerobic; pH 7.5, 22 °C; active site, pincer-type ligand of Fe(II)

## CC(N=CC(=O)O)C(=O)C(O)COP(=O)(O)OP(=O)(O)OC[C@H]1O[C@@H](n2cnc3c(N)ncnc32)[C@H](O)[C@@H]1O (stereo partly shown) [glycine imine intermediate]
  X-ray crystallography, 2.3 A: Clear density for the TaTHI4 treated with NAD and glycine shows the expected glycine imine
